Experimental data reported in patent US20120252894A1, “COMPOUNDS FOR ALLEVIATING PAIN AND STRESS IN FETUS AND NEWBORN” (priority 2011, published 2012).
Where a SMILES comes first, the peptide text is derived from it. Bridges are numbered along the chain shown (N, C = ends). [ ]: non-standard residue; d: D form. Orn = NCCC[C@H](N)C(=O)O; Mpa = O=C(O)CCS

How the values were obtained:
newborn rats = experiment: Thermal tail-flick assay (tail immersion, 50° C. water); format: in vivo, rat; details: for change in tail withdrawal delay: P0 rats, atosibane 2 μg/kg or SSR126768A 1 μg/kg intraperitoneal; for change in tail-flick delays: P2 rats, oxytocin receptor blockers; for reversal of the effect of oxytocin receptor blockers on tail-flick: newborn rats
Description: Pregnant and maternal Wistar rats were housed with a 12-h light-dark-cycle, at 24°±1° C., and food and water ad libitum. The day of birth was considered 0 day old (P0). Experiments on P0 rats (male and female) were performed within two hours after birth.
The pup was held in a box with a hole allowing the tail to protrude from it. The inner surface of the box was covered with an aluminum sheet forming an electrical contact with the rat body. The electrical circuit via the sheet, body, tail and water bath was powered by a 1.5 V battery and its connection and disconnection could be easily detected upon the tail immersion and withdrawal from the water, respectively. Electrical signals were digitized at 1 kHz using a Digidata 1200 and recorded to a computer. The distal tip of the tail was lowered into the water bath (50° C.). Latency to withdrawal was recorded as the “pain” parameter, with a 15-second maximum allowable threshold. After three habituation tests, the latency to withdrawal was determined from the average of three consecutive measurements.
We first tested pain sensitivity in the newborn rats using a thermal tail-flick response. In this test, pain sensitivity is reciprocal to the delay in tail withdrawal from the hot water. […] We studied thermal tail-flick response in two age groups: (i) fresh newborn animals which were examined immediately, within an hour, after birth (P0) and (ii) two day-old rat pups (P2). […] We further studied whether endogenous oxytocin is involved in reduced pain in the newborn rats. To block the action of endogenous oxytocin circulating in the newborn pups we used selective blockers of oxytocin receptors atosibane (2 μg/kg, intraperiotoneal) and SSR126768A (1 μg/kg, intraperiotoneal).

neonatal rats = experiment: Vocalization evoked by electrical stimulation of the whisker pad in decerebrated rat pups; format: in vivo
Description: Under isoflurane (1.5%) anaesthesia, rat pups were implanted with bipolar electrodes into the whisker pad and decerebrated at the upper pons level via a hole drilled 1 mm posterior to lambda using blunted 36 gouge needle, to avoid blood bleeding the hole was covered by cyanoacrylate after. After 10 min (P0) or one hour (P1-2 pups) of recovery period, the pups were wrapped by cotton and placed on the thermal blanket (38° C.). Whisker pad was stimulated by electrical train pulses (1 ms pulse duration, 5-25 V amplitude, 50 Hz, 1 minute inter-train interval). Vocalization response was recorded by microphone, digitized at 10 kHz using Digidata 1440 interface (Axon Instruments) and analyzed offline using Matlab (MathWorks, Natick, Mass.). To quantify the vocalization response, we calculated scalar integral (□) as following: (i) raw acustogram was converted to scalar acustogram by inverting all negative values to positive values; (ii) scalar acustogram was corrected for the baseline activity level by subtraction of the mean scalar acustogram value calculated during 1 minute before stimulation; (iii) scalar acustogram integral was calculated as cumulative, corrected for the baseline, scalar acustogram during 5 sec after stimulation.
In the experiments in vivo, Oxytocin (Sigma) 50 μM was injected at 0.1 ml/5 g (diluted in saline) IP, 30 min before testing. Bumetanide (Sigma) solution 25 μg/ml was injected IP at the dose of 5 μmol/kg, 30 min before testing. Atosiban (Sigma) (diluted in saline) was injected at 2 μg/kg, IP, 30 min before testing. SSR126768A (gift from Sanofi-Synthelabo) diluted in saline injected at 1 mg/kg IP, 30 min before testing. Sham injections in the control group were performed with equal volumes of saline.
In the second experiment, we studied oxytocin-modulation of the pain responses by measuring vocalization evoked by electrical stimulation of the whisker pad. Animals were decerebrated at caudal midbrain levels to cut the descending oxytocin projections from the VPN to spinal cord and to prevent noxious input to the brain. Electrical stimulation of the whisker pad evoked vocalization in the neonatal rats despite of decerebration. Vocalizing response was composed of several bursts with a dominant frequency in the range from 2.7 to 5 kHz (mean frequency 3.9±0.1 kHz n=24, rat P0-2). To quantify vocalization response, we calculated scalar acusticogram integral. In agreement with the results of the thermal tail-flick assay, oxytocin receptor blocker atosiban (2 μg/kg) increased vocalization response in the fresh newborn P0 rats (to 155±28%, n=8, p=0.0003;). […]

[1] = tested on: isolated spinal cord preparations; experiment: Primary afferents depolarization (DR-DRPs) in isolated spinal cord; parameters: species or system rat
Description: Experiments were performed on lumbar (L) spinal cord preparations isolated from neonatal Wistar rats (P0-P1). All efforts were made to reduce the number of animals used and to minimize animal suffering. The experimental setup was the same as described previously (Taccola and Nistri, 2004). The spinal cord was superfused (5 ml min-1) with Krebs solution of the following composition (in mM): NaCl, 113; KCl, 4.5; MgCl2×7H2O, 1; CaCl2, 2; NaH2PO4, 1; NaHCO3, 25; glucose, 11; gassed with 95% O2-5% CO2; pH 7.4 at room temperature. All agents were bath-applied via the superfusing solution at the concentrations mentioned in the text. Recordings were obtained with glass suction electrodes (containing an Ag—AgCl pellet) filled with Krebs solution. Miniature bipolar suction electrodes were used in order to deliver single or repetitive electrical stimuli to DRs to evoke DR-DR potentials (DR-DRPs) (Kerkut and Bagust, 1995). Stimulus intensity was calculated in terms of threshold (Th), defined as the minimum intensity to elicit a detectable response in the homolateral VR.
Depolarizing action of GABA on the axons of primary afferents underlies primary afferents depolarization (PAD), that is a depolarizing response evoked by dorsal root stimulation in the neighboring dorsal root (Willis, 2006; Rudomin and Schmidt, 1999). Therefore, in the next experiments we have studied the effect of oxytocin on PAD in the in vitro isolated spinal cord preparations obtained from newborn rats.

[2] = tested on: trigeminal sensory neurons; experiment: Calcium imaging of GABA-evoked intracellular calcium increases; format: cell-based, rat; details: oxytocin 1 μM; for GABA-evoked intracellular calcium increases: trigeminal neurons from newborn rats, five hours in vitro
Description: Trigeminal sensory neurons were obtained from P0 rats. Animals were anesthetized by CO2 and decapitated. Trigeminal ganglia were excised and enzymatically dissociated in F12 medium containing 0.25 mg/ml trypsin, 1 mg/ml collagenase and 0.2 mg/ml DNAse (Sigma) at 37° C. Cells were plated on poly-1-lysine-coated Petri dishes in F12 medium with 10% fetal calf serum and examined 5 hours after plating. For Ca2+ imaging experiments cells were incubated for 40 min at 20-22° C. in physiological solution containing Fluo3 (AM ester cell-permeable compound; 1 μM; Molecular Probes), followed by a 30 min washout period. Fluorescence emission was detected with a Cell-R imaging system (Olympus, Hamburg, Germany). Images were acquired with 200 ms exposure time and single cell responses were analyzed with the Cell-R software. All drugs were applied via fast perfusion system (RDS-200, BioLogic Science Instruments Grenoble, France). Only cells with two stable control GABA transients were taken into analysis. Intracellular Ca2+ transients were expressed as percent amplitude increase (ΔF/F0, where F0 is the baseline fluorescence level and ΔF is the increment over baseline). Ca2+ transient intensity data was exported and then analyzed off-line using Excel and Origin (version 8.0) software. Significance was analyzed by non-parametric Mann-Witney test.
Because analgesic action of oxytocin in adult rats involves modulation of GABAergic control of the primary nociceptive afferents (Condes-Lara et al., 2009), we studied the effect of oxytocin on GABA responses in sensory trigeminal neurons, which detect noxious stimuli and conduct them to the spinal cord. Experiments were performed in primary cultures of trigeminal neurons dissociated from newborn rats and kept for five hours in vitro. In keeping with previous observations (Wang et al., 1994; Reichling et al., 1994), activation of GABA receptors induced robust transient increases of intracellular calcium in trigeminal neurons indicating depolarizing action of GABA and calcium entry into the cells via voltage-gated calcium channels. […]

TRPV1 receptors = biological target: T1, TRPV1 receptors (Rattus norvegicus, UniProt O35433); experiment: Calcium imaging of capsaicin-evoked responses in DRG neurons; format: cell-based
T1 construct: endogenous in cells; host or cells: acutely dissociated primary sensory neurons (trigeminal ganglia per methods; called DRG neurons in results) from P0 rats

P2X3 receptor = biological target: T2, P2X3 receptor (Rattus norvegicus, UniProt P49654); experiment: Calcium imaging of α-β-meATP-evoked responses in DRG neurons; format: cell-based
T2 construct: endogenous in cells; host or cells: acutely dissociated primary sensory neurons (trigeminal ganglia per methods; called DRG neurons in results) from P0 rats
T2 sequence (P49654 1-397): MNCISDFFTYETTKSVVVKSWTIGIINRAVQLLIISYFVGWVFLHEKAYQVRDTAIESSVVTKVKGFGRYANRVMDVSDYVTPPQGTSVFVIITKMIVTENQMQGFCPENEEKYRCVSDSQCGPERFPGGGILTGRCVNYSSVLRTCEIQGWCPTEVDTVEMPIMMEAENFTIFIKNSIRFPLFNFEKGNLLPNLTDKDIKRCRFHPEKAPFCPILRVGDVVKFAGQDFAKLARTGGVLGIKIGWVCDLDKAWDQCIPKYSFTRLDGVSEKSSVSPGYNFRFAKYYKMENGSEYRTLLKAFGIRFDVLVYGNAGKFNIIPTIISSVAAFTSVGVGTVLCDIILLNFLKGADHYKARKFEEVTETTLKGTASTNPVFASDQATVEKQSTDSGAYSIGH

GABA(A) channels = experiment: Cell-attached single GABA(A) channel recordings (GABA driving force); format: cell-based, rat; details: immature trigeminal neurons; oxytocin 1 μM (control 38.7±2.4 mV)
Description: Single GABA channel recordings were performed from the trigeminal sensory neurons prepared as described above. Cell attached patch-clamp recordings were performed using Axopatch 200A (Axon Instruments, Union City, Calif.) and EPC-9 (HEKA Elektronik Dr. Schulze GmbH, Lambrecht/Pfalz, Germany) amplifiers. Patch electrodes were made from borosilicate glass capillaries (GC150F-15, Clark Electromedical Instruments). For recordings of single GABA(A) channels, patch pipette solution contained (in mM): NaCl 120, TEA-Cl 20, KCl 5, 4-aminopyridine 5, CaCl2 0.1, MgCl2 10, glucose 10, Hepes-NaOH 10 buffered to pH 7.2-7.3 and GABA (1-5 μM) was added at the day of experiment from 1 mM frozen stock solution. Driving force for GABA(A) receptor mediated currents was determined from the current-voltage relationships of the currents through single GABA(A) channels single as described earlier (Tyzio et al., 2006) and corrected for an error of 2 mV (Tyzio et al., 2008).
DFGABA was deduced from reversal potential of the currents via GABA(A) channels (Serafini et al., 1995; Tyzio et al., 2006; Tyzio et al., 2008). In control conditions, GABA exerted strongly depolarizing action on the immature trigeminal neurons with DFGABA of 38.7±2.4 mV (n=6). In the presence of oxytocin (1 μM), DFGABA reduced to 17.7±6.7 mV (n=5; P<0.05).

[3] = newborn rats, drug alone (oxytocin 1 μM; atosiban 10 μM)
[4] = recordings between 12 and 24 hours after birth, atosiban 10 μM, oxytocin

T1 sequence (O35433 whole entry): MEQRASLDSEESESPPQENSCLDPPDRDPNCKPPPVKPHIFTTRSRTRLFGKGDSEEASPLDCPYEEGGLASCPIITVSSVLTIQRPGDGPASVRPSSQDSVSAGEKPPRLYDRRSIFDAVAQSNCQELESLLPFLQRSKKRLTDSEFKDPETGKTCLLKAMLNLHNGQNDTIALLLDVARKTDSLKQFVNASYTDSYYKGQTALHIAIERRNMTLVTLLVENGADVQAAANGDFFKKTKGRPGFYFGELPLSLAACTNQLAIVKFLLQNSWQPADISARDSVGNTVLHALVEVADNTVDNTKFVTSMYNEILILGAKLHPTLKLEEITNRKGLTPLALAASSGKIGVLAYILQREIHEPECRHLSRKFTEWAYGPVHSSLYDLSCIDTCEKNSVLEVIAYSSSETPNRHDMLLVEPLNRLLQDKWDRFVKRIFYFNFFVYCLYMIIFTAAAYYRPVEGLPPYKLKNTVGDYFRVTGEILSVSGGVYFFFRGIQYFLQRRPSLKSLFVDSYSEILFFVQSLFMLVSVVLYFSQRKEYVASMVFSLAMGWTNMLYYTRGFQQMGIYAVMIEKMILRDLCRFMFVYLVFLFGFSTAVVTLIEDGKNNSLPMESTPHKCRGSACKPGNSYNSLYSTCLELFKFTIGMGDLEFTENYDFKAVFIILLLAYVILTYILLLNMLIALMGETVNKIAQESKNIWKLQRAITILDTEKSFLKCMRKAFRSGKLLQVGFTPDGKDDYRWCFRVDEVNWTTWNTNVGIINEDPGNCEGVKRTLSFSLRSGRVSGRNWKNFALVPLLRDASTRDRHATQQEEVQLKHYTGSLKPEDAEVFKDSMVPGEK

Row | Structure (SMILES) | change in tail withdrawal delay (newborn rats) | change in tail-flick delays (newborn rats) | peak of DR-DRPs, % of control [1, 3] | peak of DR-DRPs, % of control [1, 4] | reversal of the effect of oxytocin receptor blockers on tail-flick (newborn rats) | vocalization response (scalar acusticogram integral) (neonatal rats; P1-2 rats, drug alone) | GABA-evoked intracellular calcium increases [2] | also measured
1 | CCN(Cc1cccnc1)C(=O)c1ccc(Cl)c([C@]2(C)C(=O)N(Cc3ccc(OC)cc3OC)c3ccc(Cl)cc32)c1 [SSR126768A] | nearly three-fold acceleration in the tail withdrawal | did not significantly modify the tail-flick delays | – | – | – | – | – | –
2 | CCOc1ccc(C[C@H]2NC(=O)CCSSC[C@@H](C(=O)N3CCC[C@H]3C(=O)N[C@@H](CCCN)C(=O)NCC(N)=O)NC(=O)[C@H](CC(N)=O)NC(=O)[C@H]([C@@H](C)O)NC(=O)[C@H]([C@@H](C)CC)NC2=O)cc1 [atosiban] ([Mpa][dY](Et)ITNCP[Orn]G-NH2; disulfide 1-6) | nearly three-fold acceleration in the tail withdrawal | did not significantly modify the tail-flick delays | 112.7±9.1% | 90.0±9.8% | – | – | – | vocalization response (scalar acusticogram integral) (neonatal rats; P0 rats, atosiban 2 μg/kg): 155±28%; vocalization response, from control level (neonatal rats; P1-2 rats, atosiban on top of exogenous oxytocin): 84±38%; peak of DR-DRPs, % of control ([1]; atosiban 10 μM added to oxytocin 1 μM): 106.0±20.8%
3 | CCCCNc1cc(C(=O)O)cc(S(N)(=O)=O)c1Oc1ccccc1 [bumetanide] | – | – | – | – | reversed the effect of oxytocin receptor blockers | 72±16% | suppressed the GABA receptor mediated increases in intracellular calcium | tail-flick responses (newborn rats; bumetanide 10 μM/kg, both age groups (P0 and P2)): strongly delayed the tail-flick responses; peak of DR-DRPs, % with respect to control values ([1]; bumetamide 20 μM added to atosiban 10 μM): 66.6±13.8%
4 | COc1cc(CNC(=O)CCCC/C=C/C(C)C)ccc1O [capsaicin] | – | – | – | – | – | – | – | Ca2+ response evoked by agonist (TRPV1 receptors; 200 nM, 2 s pulses at 10 min intervals): evoked transient, and quite stable Ca2+ increases
5 | CC[C@H](C)[C@@H]1NC(=O)[C@H](Cc2ccc(O)cc2)NC(=O)[C@@H](N)CSSC[C@@H](C(=O)N2CCC[C@H]2C(=O)N[C@@H](CC(C)C)C(=O)NCC(N)=O)NC(=O)[C@H](CC(N)=O)NC(=O)[C@H](CCC(N)=O)NC1=O [oxytocin] | – | – | 93.6±5.6% | 77.8±21.6% | partially reverse the effects of the competitive oxytocin receptor blockers | 41±12% | significantly reduced GABA-evoked calcium increases | analgesic effect in tail-flick test (newborn rats; exogenous oxytocin 1 μg/kg systemic, newborn and P2 rats): dramatic analgesic effect; duration of slow transient responses induced by the drug ([2]; not shown): 60 to 80 s; amplitude of α-β-meATP (10 μM) evoked Ca2+ responses (P2X3 receptor; 1 μM-OT for 20-30 min): did not significantly change the amplitude; amplitude of capsaicin (200 nM) evoked Ca2+ responses (TRPV1 receptors; 1 μM-OT for 20-30 min): did not significantly change the amplitude; GABA driving force (DFGABA) (GABA(A) channels): 17.7±6.7 mV
6 | Nc1ncnc2c1ncn2[C@@H]1O[C@H](COP(=O)(O)CP(=O)(O)OP(=O)(O)O)[C@@H](O)[C@H]1O [α-β-methylenATP] | – | – | – | – | – | – | – | Ca2+ response evoked by agonist (P2X3 receptor; 10 μM, 2 s pulses at 10 min intervals): evoked transient, and quite stable Ca2+ increases
